According to ChEMBL document CHEMBL1201862, “PubChem BioAssay data set” (2004):
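These data come from cells grown in 96-well plates and exposed to compound for 48 hours at five concentrations. GI50 = concentration required for 50% inhibition of growth.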 The source made the active and inactive calls. Cut-off read from the data, not from the text of the source: active = GI50 up to about 1.1 µM and inactive = higher.

How the values were obtained:
Test in all cases: DTP human tumour cell line panel, 48 h
NCI-H460 = tested on: NCI-H460
OVCAR-8 = tested on: OVCAR-8
OVCAR-3 = tested on: OVCAR-3
LOX IMVI = tested on: LOX IMVI
PC-3 = tested on: PC-3
NCI-H23 = tested on: NCI-H23
UO-31 = tested on: UO-31
NCI-H522 = tested on: NCI-H522
SW-620 = tested on: SW-620
A498 = tested on: A498
MCF7 = tested on: MCF7
SK-MEL-28 = tested on: SK-MEL-28
TK-10 = tested on: TK-10
HCC 2998 = tested on: HCC 2998
K562 = tested on: K562
IGROV-1 = tested on: IGROV-1
OVCAR-4 = tested on: OVCAR-4
SF-539 = tested on: SF-539
HCT-15 = tested on: HCT-15
SK-OV-3 = tested on: SK-OV-3

Structure (SMILES) | GI50 (NCI-H460) | GI50 (OVCAR-8) | GI50 (OVCAR-3) | GI50 (LOX IMVI) | GI50 (PC-3) | GI50 (NCI-H23) | GI50 (UO-31) | GI50 (NCI-H522) | GI50 (SW-620) | GI50 (A498) | GI50 (MCF7) | GI50 (SK-MEL-28) | GI50 (TK-10) | GI50 (HCC 2998) | GI50 (K562) | GI50 (IGROV-1) | GI50 (OVCAR-4) | GI50 (SF-539) | GI50 (HCT-15) [µM] | GI50 (SK-OV-3)
COc1cc2oc(=O)ccc2cc1CC=C(C)C [SUBEROSIN] | 50.8 µM (inactive) | 44.6 µM (inactive) | 59.7 µM (inactive) | 39.1 µM (inactive) | 83 µM (inactive) | 52.4 µM (inactive) | 21.9 µM (inactive) | 42.3 µM (inactive) | 41.3 µM (inactive) | 27.2 µM (inactive) | 32.4 µM (inactive) | 76.4 µM (inactive) | 19.9 µM (inactive) | 31 µM (inactive) | 51.4 µM (inactive) | 62.8 µM (inactive) | 23.4 µM (inactive) | 37.7 µM (inactive) | – | –
O=[N+]([O-])/C=C/c1cccc(F)c1 | 12.2 µM (inactive) | 11.7 µM (inactive) | 2.39 µM (inactive) | 0.912 µM (active) | 3.01 µM (inactive) | 3.48 µM (inactive) | 2.54 µM (inactive) | 12.3 µM (inactive) | 2.58 µM (inactive) | 13.7 µM (inactive) | 1.05 µM (active) | 2.28 µM (inactive) | 3.82 µM (inactive) | 12 µM (inactive) | – | 1.37 µM (inactive) | 3.75 µM (inactive) | 4.45 µM (inactive) | 2.21 | 14.3 µM (inactive)
c1ccc(-c2cc(-c3cc(-c4ccccc4)no3)on2)cc1 | 45.1 µM (inactive) | 13.8 µM (inactive) | 39.5 µM (inactive) | 40.8 µM (inactive) | > 100 µM (inactive) | 49.1 µM (inactive) | > 100 µM (inactive) | > 100 µM (inactive) | > 100 µM (inactive) | > 100 µM (inactive) | > 100 µM (inactive) | > 100 µM (inactive) | > 100 µM (inactive) | > 100 µM (inactive) | 17.9 µM (inactive) | 35.2 µM (inactive) | 19.4 µM (inactive) | 15.1 µM (inactive) | > 100 | 28.6 µM (inactive)
CC(=O)N(C(=O)CC(=O)N1N=C(c2ccccc2)C(/N=N/c2ccccc2[N+](=O)[O-])C1=O)c1ccc(Cl)cc1 (configuration not stated) | > 10 µM (inactive) | > 10 µM (inactive) | > 10 µM (inactive) | > 10 µM (inactive) | > 10 µM (inactive) | > 10 µM (inactive) | > 10 µM (inactive) | > 10 µM (inactive) | > 10 µM (inactive) | > 10 µM (inactive) | > 10 µM (inactive) | > 10 µM (inactive) | > 10 µM (inactive) | > 10 µM (inactive) | > 10 µM (inactive) | > 10 µM (inactive) | > 10 µM (inactive) | > 10 µM (inactive) | > 10 | > 10 µM (inactive)
CN(C)S(=O)(=O)c1nc(Cl)c2nc[nH]c2n1 | – | > 100 µM (inactive) | > 100 µM (inactive) | > 100 µM (inactive) | > 100 µM (inactive) | > 100 µM (inactive) | > 100 µM (inactive) | > 100 µM (inactive) | > 100 µM (inactive) | > 100 µM (inactive) | > 100 µM (inactive) | > 100 µM (inactive) | > 100 µM (inactive) | > 100 µM (inactive) | > 100 µM (inactive) | > 100 µM (inactive) | > 100 µM (inactive) | – | > 100 | > 100 µM (inactive)
O=C(O)C(Cc1c[nH]c2ccccc12)N1C(=O)c2ccccc2C1=O (configuration not stated) | > 100 µM (inactive) | 7.21 µM (inactive) | > 100 µM (inactive) | > 100 µM (inactive) | > 100 µM (inactive) | > 100 µM (inactive) | > 100 µM (inactive) | > 100 µM (inactive) | > 100 µM (inactive) | > 100 µM (inactive) | > 100 µM (inactive) | > 100 µM (inactive) | > 100 µM (inactive) | > 100 µM (inactive) | – | 16.3 µM (inactive) | > 100 µM (inactive) | > 100 µM (inactive) | > 100 | > 100 µM (inactive)
O=P1(C(O)/C=C/c2ccccc2)N(Cc2ccccc2)[C@H](c2ccccc2)[C@@H](c2ccccc2)N1Cc1ccccc1 (some centres not stated) | 15 µM (inactive) | 10.2 µM (inactive) | 16.9 µM (inactive) | 17.5 µM (inactive) | 7.55 µM (inactive) | 13.1 µM (inactive) | 12.5 µM (inactive) | 4.9 µM (inactive) | 26.1 µM (inactive) | 37.7 µM (inactive) | 12 µM (inactive) | 35.2 µM (inactive) | 26 µM (inactive) | 19.6 µM (inactive) | 7.85 µM (inactive) | 2.24 µM (inactive) | 13 µM (inactive) | > 51.3 µM (inactive) | 32.1 | 22.5 µM (inactive)
CCOC(=O)C1(C(=O)OCC)C[C@H]2CON=C2[C@@H]1c1ccc(C(F)(F)F)cc1 | 42.9 µM (inactive) | 79.4 µM (inactive) | 40.1 µM (inactive) | 16.6 µM (inactive) | 42.9 µM (inactive) | 58.7 µM (inactive) | 14.2 µM (inactive) | 24.7 µM (inactive) | 68.1 µM (inactive) | 53.1 µM (inactive) | 35.9 µM (inactive) | > 100 µM (inactive) | 67 µM (inactive) | 31.9 µM (inactive) | 35.2 µM (inactive) | 12.5 µM (inactive) | 17.7 µM (inactive) | > 100 µM (inactive) | 38.6 | 57.8 µM (inactive)
OC[C@H]1O[C@@H](n2cnc3c(S)ncnc32)[C@H](O)[C@@H]1O [THIOINOSINE] | 2140 µM (inactive) | > 2440 µM (inactive) | 1160 µM (inactive) | 1840 µM (inactive) | > 2500 µM (inactive) | > 2500 µM (inactive) | – | 2160 µM (inactive) | > 2500 µM (inactive) | > 2200 µM (inactive) | 2290 µM (inactive) | > 2500 µM (inactive) | > 2500 µM (inactive) | > 2500 µM (inactive) | 1290 µM (inactive) | > 2180 µM (inactive) | 1520 µM (inactive) | > 2500 µM (inactive) | > 2500 | 603 µM (inactive)
C/C=C\C(CC(=O)O)CC(=O)NCCC1CN(S(=O)(=O)C(F)(F)F)c2ccccc21 (configuration not stated) | > 100 µM (inactive) | > 100 µM (inactive) | > 100 µM (inactive) | > 100 µM (inactive) | > 100 µM (inactive) | > 100 µM (inactive) | > 100 µM (inactive) | > 100 µM (inactive) | > 100 µM (inactive) | > 100 µM (inactive) | > 100 µM (inactive) | > 100 µM (inactive) | – | > 100 µM (inactive) | > 100 µM (inactive) | > 100 µM (inactive) | > 100 µM (inactive) | – | > 100 | > 100 µM (inactive)
COc1cc2c(cc1OC)-c1cc3cc(OC)c(OC)cc3c(C)[n+]1CC2.O=C([O-])CS(=O)(=O)O | 13.8 µM (inactive) | > 100 µM (inactive) | 29.1 µM (inactive) | > 100 µM (inactive) | 15.9 µM (inactive) | 35.4 µM (inactive) | > 100 µM (inactive) | 6.78 µM (inactive) | > 100 µM (inactive) | > 100 µM (inactive) | 46.3 µM (inactive) | > 100 µM (inactive) | > 100 µM (inactive) | 19.3 µM (inactive) | – | 61.1 µM (inactive) | > 100 µM (inactive) | 76.6 µM (inactive) | > 100 | 79.1 µM (inactive)
Oc1cc(Cc2ccccc2)c(Cc2ccccc2)cc1O | > 10 µM (inactive) | > 10 µM (inactive) | > 10 µM (inactive) | > 10 µM (inactive) | > 10 µM (inactive) | > 10 µM (inactive) | > 10 µM (inactive) | > 10 µM (inactive) | > 10 µM (inactive) | > 10 µM (inactive) | > 10 µM (inactive) | > 10 µM (inactive) | – | > 10 µM (inactive) | > 10 µM (inactive) | > 10 µM (inactive) | > 10 µM (inactive) | > 10 µM (inactive) | > 10 | > 10 µM (inactive)
O=C1c2c(O)cccc2C(C2OC(CO)C(O)C(O)C2O)c2cc(CO)cc(O)c21 (configuration not stated) | > 100 µM (inactive) | > 100 µM (inactive) | – | > 100 µM (inactive) | > 100 µM (inactive) | > 100 µM (inactive) | > 100 µM (inactive) | > 100 µM (inactive) | > 100 µM (inactive) | > 100 µM (inactive) | > 100 µM (inactive) | > 100 µM (inactive) | > 100 µM (inactive) | > 100 µM (inactive) | > 100 µM (inactive) | > 100 µM (inactive) | > 100 µM (inactive) | > 100 µM (inactive) | > 100 | > 100 µM (inactive)
O=C(c1ccccc1)c1c(C(F)(F)F)[n+]([O-])c2cc(F)c(F)cc2[n+]1[O-] | 3.21 µM (inactive) | 0.634 µM (active) | 0.653 µM (active) | – | 0.716 µM (active) | 0.211 µM (active) | 1.38 µM (inactive) | 0.746 µM (active) | 0.499 µM (active) | 2.56 µM (inactive) | 0.349 µM (active) | 1.26 µM (inactive) | 0.195 µM (active) | 0.589 µM (active) | 0.105 µM (active) | 1.6 µM (inactive) | 2.07 µM (inactive) | 0.838 µM (active) | 0.49 | 5.97 µM (inactive)
